Patent publication US9023821B2, “Use of MicroRNA for treating diseases associated with a dysfunction of the cilia in multiciliated epithelial cells” (Centre National de la Recherche Scientifique, priority 2009, dated 2015)

Columns and labels:
[1] = test system: human airway epithelial cells (HAECs); experiment: High-throughput sequencing (HTS) of miRNAs at four stages of differentiation of HAECs; conditions: for Modulation (ratio of the level of intensity of expression in log2 in two stages of differentiation) measured by high-throughput sequencing, D7 − D0 / Modulation (ratio of the level of intensity of expression in log2 in two stages of differentiation) measured by high-throughput sequencing, FC − D7 / Modulation (ratio of the level of intensity of expression in log2 in two stages of differentiation) measured by high-throughput sequencing, WD − D0 / Modulation (ratio of the level of intensity of expression in log2 in two stages of differentiation) measured by high-throughput sequencing, WD − FC / Level of intensity of expression in log2 measured by high-throughput sequencing, D0 / Level of intensity of expression in log2 measured by high-throughput sequencing, D7 / Level of intensity of expression in log2 measured by high-throughput sequencing, FC / Level of intensity of expression in log2 measured by high-throughput sequencing, WD: Table VI; for Level of intensity of expression in log2 At the differentiated stage (WD) measured in HTS: healthy human airway epithelial tissue; for Level of intensity of expression in log2 measured by high-throughput sequencing, D0: stage D0; for Level of intensity of expression in log2 measured by high-throughput sequencing, D7: stage D7; for Level of intensity of expression in log2 measured by high-throughput sequencing, FC: stage FC; for Level of intensity of expression in log2 At the differentiated stage (WD) measured in HTS / Level of intensity of expression in log2 measured by high-throughput sequencing, WD: stage WD
Outline: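 Small-RNA libraries from differentiating HAECs (ALI-D0 to ALI-WD) were built by ligation-based SOLiD chemistry, size-selected and sequenced. Strand counts were normalized per million reads, converted to percentage abundance, and filtered on adjusted P-value below 0.05.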

[2] = test system: human airway epithelial cells (HAECs); experiment: Agilent miRNA chips, miRNA expression at four stages of differentiation of HAECs; conditions: for Modulation (ratio of the level of intensity of expression in log2 in two stages of differentiation) measured with the Agilent chips, D7 − D0 / Modulation (ratio of the level of intensity of expression in log2 in two stages of differentiation) measured with the Agilent chips, FC − D7 / Modulation (ratio of the level of intensity of expression in log2 in two stages of differentiation) measured with the Agilent chips, WD − D0 / Modulation (ratio of the level of intensity of expression in log2 in two stages of differentiation) measured with the Agilent chips, WD − FC / Level of intensity of expression in log2 measured with the Agilent chips, D0 / Level of intensity of expression in log2 measured with the Agilent chips, D7 / Level of intensity of expression in log2 measured with the Agilent chips, FC / Level of intensity of expression in log2 measured with the Agilent chips, WD: Table VI; for Level of intensity of expression in log2 measured with the Agilent chips, D0: stage D0; for Level of intensity of expression in log2 measured with the Agilent chips, D7: stage D7; for Level of intensity of expression in log2 measured with the Agilent chips, FC: stage FC; for Level of intensity of expression in log2 measured with the Agilent chips, WD: stage WD
Outline: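 RNA from the same patients' HAECs at four differentiation stages was labelled and hybridized with the Agilent miRNA labeling and hybridization kit. Chips were Human miRNA Microarray v2, with 866 human and 89 viral miRNAs (miRBase v12.0). Profiles were compared with high-throughput sequencing data.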

[3] = test system: basal cells and pyramidal cells of the airway epithelium; experiment: miRNA expression in sorted basal cells versus pyramidal cells (ciliated + secretory), HTS and Agilent chips; parameters: species or system human; conditions: for Modulation of expression of the miRNAs in pyramidal cells (323(−)) relative to basal cells 323(+): HTS and Agilent chips; for Intensity of the level of expression in log2 in pyramidal cells (323(−)): pyramidal cells (ciliated + secretory)
Outline: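 Epithelium dissociated from nasal polyps is held 30 min in PBS-BSA-EDTA, then labelled 20 min at 4° C for CD151 and tissue factor. After DAPI staining, live single cells are sorted into marker-double-positive and double-negative fractions, and sort purity and identity are verified. Total RNA then undergoes miRNA profiling on arrays or by sequencing.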

Substance	Modulation (ratio of the level of intensity of expression in log2 in two stages of differentiation) measured by high-throughput sequencing, D7 − D0 [1]	Modulation (ratio of the level of intensity of expression in log2 in two stages of differentiation) measured by high-throughput sequencing, FC − D7 [1]	Modulation (ratio of the level of intensity of expression in log2 in two stages of differentiation) measured by high-throughput sequencing, WD − D0 [1]	Modulation (ratio of the level of intensity of expression in log2 in two stages of differentiation) measured by high-throughput sequencing, WD − FC [1]	Level of intensity of expression in log2 At the differentiated stage (WD) measured in HTS [1]	Level of intensity of expression in log2 measured by high-throughput sequencing, D0 [1]	Level of intensity of expression in log2 measured by high-throughput sequencing, D7 [1]	Level of intensity of expression in log2 measured by high-throughput sequencing, FC [1]	Level of intensity of expression in log2 measured by high-throughput sequencing, WD [1]	Modulation (ratio of the level of intensity of expression in log2 in two stages of differentiation) measured with the Agilent chips, D7 − D0 [2]	Modulation (ratio of the level of intensity of expression in log2 in two stages of differentiation) measured with the Agilent chips, FC − D7 ([2]; FC − D7)	Modulation (ratio of the level of intensity of expression in log2 in two stages of differentiation) measured with the Agilent chips, WD − D0 [2]	Modulation (ratio of the level of intensity of expression in log2 in two stages of differentiation) measured with the Agilent chips, WD − FC ([2]; WD − FC)	Level of intensity of expression in log2 measured with the Agilent chips, D0 [2]	Level of intensity of expression in log2 measured with the Agilent chips, D7 [2]	Level of intensity of expression in log2 measured with the Agilent chips, FC [2]	Level of intensity of expression in log2 measured with the Agilent chips, WD [2]	Modulation of expression of the miRNAs in pyramidal cells (323(−)) relative to basal cells 323(+) [3]	Intensity of the level of expression in log2 in basal cells (323(+)) [3]	Intensity of the level of expression in log2 in pyramidal cells (323(−)) [3]	other results
hsa-miR-140-3p: human miRNA, SEQ ID No. 5 (UACCACAGGGUAGAACCACGG; expressed or natural sequence; listed as Homo sapiens)	0.33 log2	0.37 log2	0.73 log2	0.04 log2	13.12 log2	12.39 log2	12.72 log2	13.08 log2	13.12 log2	1.54 log2	−0.08 log2	1.52 log2	0.06 log2	3.55 log2	5.09 log2	5.01 log2	5.07 log2	0.91	2.75 log2	3.66 log2	Modulation (ratio of the level of intensity of expression in log2 in two stages of differentiation), D7 − D0 ([1]; HTS): 0.33 log2; Modulation (ratio of the level of intensity of expression in log2 in two stages of differentiation), FC − D7 ([1]; HTS): 0.37 log2; Modulation (ratio of the level of intensity of expression in log2 in two stages of differentiation), WD − FC ([1]; HTS): 0.04 log2; Abundance (%), D0 ([1]; HTS, ALI-D0): 1.17%; Abundance (%), D7 ([1]; HTS, ALI-D7): 1.48%; Abundance (%), FC ([1]; HTS, ALI-FC): 1.85%; Abundance (%), WD ([1]; HTS, ALI-WD): 1.44%
hsa-miR-141: human miRNA, SEQ ID No. 6 (UAACACUGUCUGGUAAAGAUGG; expressed or natural sequence; listed as Homo sapiens)	1.17 log2	0.37 log2	1.70 log2	0.17 log2	9.75 log2	8.05 log2	9.22 log2	9.58 log2	9.75 log2	2.16 log2	−0.28 log2	1.88 log2	0.00 log2	11.15 log2	13.31 log2	13.03 log2	13.03 log2	−2.88	11.12 log2	8.24 log2	Modulation (ratio of the level of intensity of expression in log2 at two stages of differentiation), FC − D7 ([2]; FC − D7, Agilent miRNA chips, Table V): −0.28 log2; Modulation (ratio of the level of intensity of expression in log2 at two stages of differentiation), WD − FC ([2]; WD − FC, Agilent miRNA chips, Table V): 0.00 log2
